Results as given in US20150167016A1, “Plants Tolerant to HPPD Inhibitor Herbicides” (Bayer CropScience AG, priority 2009, published 2015).
Where “and” joins values, the source holds several entries; their conditions need not be identical. Equal entries are not always repeated. Where two headings read alike, the source gives them in different places.

Columns and labels:
[1] = system: Picrophilus torridus HPPD "SEQ ID No. 5"; experiment: biochemical; assay type: biochemical
[2] = biological target: (UniProt Q6KZ98); experiment: biochemical; assay type: biochemical, Picrophilus torridus; settings: read-out: pI50 (converted)
[3] = system: T1 tobacco plants carrying FMP29e from Picrophilus torridus; experiment: Glasshouse response to bicyclopyrone, injury classes; assay type: in vivo, Nicotiana tabacum; settings: 100 g Al/ha, 7 DAT
Text: (§1) Seeds of wild type tobacco plants and T1 tobacco plants carrying the gene from Picrophilus torridus FMP29e coding for HPPD were sown on MS media (Murashige and Skoog […]) supplemented with […] kanamycin. After 4 weeks, rooted green plantlets were transferred to soil and grown for 3 weeks in the glasshouse as described above then sprayed with a mixture containing bicyclopyrone (100 g Al/ha), ammonium sulfate and methyl ester raps oil. The plants were classified in two categories based on the phenotype developed in response to the herbicide seven days after the treatment. […] In this case, only plants containing at least one T-DNA were exposed to the herbicidal treatment.

[4] = system: Wild type tobacco plants; experiment: as above; assay type: in vivo, Nicotiana tabacum; settings: WT; 100 g Al/ha, 7 DAT
Text: as §1

[5] = system: Wild type tobacco plants; experiment: Glasshouse spray trial, herbicidal damage; assay type: in vivo, Nicotiana tabacum; settings: individual plants, 100% = same bleaching as wild type
Description: (§2) T0 Tobacco plants containing either the gene from Arabidopsis coding for HPPD or the gene FMP29e from Picrophilus torridus coding for FMP29 HPPD, mentioned above (Example3), were transferred to the glasshouse (28/20° C.), to develop further and produce seeds. Those seeds were harvested and put on soil (ED73 mixed with sand and osmocote Pro) to germinate in the glasshouse (28/20° C.). Three to four weeks later, plantlets were transferred to single pots containing the soil mentioned above. Two weeks later, plants of a size 4-6 cm diameter were sprayed with either • tembotrione at 100 gAl/ha prepared from a WP20 (wettable powder 20%) formulation supplemented with ammonium sulfate and methyl ester raps oil, or • isoxaflutole at 100 gAl/ha prepared from a WP20 formulation supplemented with ammonium sulfate and methyl ester raps oil, or • bicyclopyrone at 100 gAl/ha prepared from a WP20 formulation supplemented with ammonium sulfate and methyl ester raps oil, or • “blind formulation” made from a WP20 formulation without active ingredient (Al) supplemented with ammonium sulfate and methyl ester raps oil, and were then transferred to a growth chamber with adequate light conditions (20000 Lux).
(§3) Table 5: Wild type tobacco plants (A) and Ti populations of tobacco events containing alternatively, the expression cassettes described above having the promoter CaMV 35S, the sequence coding for OTP and the sequence coding for Arabidopsis HPPD (B) or the promoter CaMV35S, the sequence encoding OTP, and the sequence FMP29e coding for the HPPD FMP29 (C). Assessments of herbicidal damage at 7 days after application (DAT) per spray with 100 g Al/ha of tembotrione or isoxaflutole supplemented with ammonium sulfate and methyl ester raps oil. […] Plants belonging to categories (B) and (C) have not been selected for the presence of the respective transgene prior to the herbicide application.

[6] = system: T1 tobacco plants containing FMP29e (Picrophilus torridus HPPD FMP29); experiment: Glasshouse spray trial, herbicidal damage; assay type: in vivo, Nicotiana tabacum; settings: for tolerance of plants containing FMP29e gene: 7 DAT, 100 g Al/ha spray; for % injury, 7DAT, 100 g Al/ha: FMP29e, not selected for transgene
Description: as §2, §3

[7] = system: T1 tobacco plants containing Arabidopsis HPPD; experiment: Glasshouse spray trial, herbicidal damage; assay type: in vivo, Nicotiana tabacum; settings: not selected for transgene
Description: as §2, §3

[8] = system: tobacco calli containing HPPD SEQ ID No. 11 (Arabidopsis thaliana); experiment: Rooting of calli on media with tembotrione; assay type: cell-based, Nicotiana tabacum; settings: calli containing SEQ ID No. 11; 6 to 12 weeks
Description: (§4) The leaf disks were co-cultivated for 2 days with Agrobacterium tumefaciens cells containing either the binary vector FMP29ebv or AtHPPDbv. Then the leaf disks were transferred to a media allowing the regeneration of shoots for 6 weeks on MS (Musharige and Skoog, (1962), Physiol Plant 15(3): 473-497) media supplemented with BAP (1 mg/mL; Benzylaminopurine), carbenicillin (250 mg/mL), cefotaxine (250 mg/mL), kanamycin (75 mg/mL) and tembotrione (10^−6 M) Regenerated calli were transferred on media to induce the development of roots for 6 to 12 weeks: MS (½), supplemented with carbenicillin (250 mg/mL), cefotaxine (250 mg/mL), kanamycin (75 mg/mL), and tembotrione (10^−6 M).
(§5) Regenerated shoot calli from a cell transformed with a nucleic acid sequence encoding an HPPD comprising SEQ ID No. 11 (Arabidopsis thaliana) or SEQ ID No. 7 (Picrophilus torridus) were transferred to a media inducing root growth which media was further supplemented with the HPPD inhibitor tembotrione for 6 to 12 weeks.

[9] = system: tobacco calli containing HPPD SEQ ID No. 7 (Picrophilus torridus); experiment: Rooting of calli on media with tembotrione; assay type: cell-based, Nicotiana tabacum; settings: calli containing SEQ ID No. 7, 6 to 12 weeks
Description: as §4, §5

[10] = biological target: T1, Arabidopsis thaliana HPPD "SEQ ID No. 10" (Arabidopsis thaliana, UniProt P93836); experiment: HPPD activity in presence of HPPD inhibitors (spectrophotometric assay of WO 2009/144079); assay type: biochemical
T1 construct: made in house; host or cells: E. coli K-12 BL21 (pQE30-AtHPPD)
T1 sequence (P93836 with tags, fused parts or gaps): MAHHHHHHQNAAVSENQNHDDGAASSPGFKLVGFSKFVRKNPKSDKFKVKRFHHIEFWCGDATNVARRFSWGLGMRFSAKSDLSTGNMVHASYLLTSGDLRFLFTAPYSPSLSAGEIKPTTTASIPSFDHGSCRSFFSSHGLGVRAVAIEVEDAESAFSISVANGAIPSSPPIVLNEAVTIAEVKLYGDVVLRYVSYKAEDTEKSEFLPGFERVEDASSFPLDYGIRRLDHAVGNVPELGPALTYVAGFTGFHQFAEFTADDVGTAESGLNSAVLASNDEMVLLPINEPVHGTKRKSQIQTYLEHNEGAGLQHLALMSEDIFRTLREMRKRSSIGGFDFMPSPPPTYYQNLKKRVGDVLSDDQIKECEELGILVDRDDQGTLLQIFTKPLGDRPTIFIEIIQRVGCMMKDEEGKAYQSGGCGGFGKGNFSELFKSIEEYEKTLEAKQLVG

[11] = SEQ ID No. 5, 5.0 × 10^−6M inhibitor
[12] = FMP29e line 121, plants with at least one T-DNA
[13] = SEQ ID No. 5, 2 mM HPP, 3 minutes incubation, >> = far higher than indicated, not calculable in tested range 2.5 × 10^−6 to 2.5 × 10^−4M

Q: What does the source list for `CS(=O)(=O)c1ccc(C(=O)C2C(=O)CCCC2=O)c(Cl)c1` [Sulcotrione, 2-[2-chloro-4-(methylsulfonyl)benzoyl]-1,3-cyclohexanedione]?
A: pI50 [1]: >5.6; percentage of inhibition compared to the activity measured in absence of the inhibitor [1]: 92%

Q: `Cc1ccc(C(=O)COc2c(C(=O)c3ccc(Cl)c(C)c3Cl)c(C)nn2C)cc1` [Benzofenap] was tested. Which IC50 [2] did it give?
A: 15.8 µM

Q: And the “percentage of inhibition compared to the activity measured in absence of the inhibitor” value (“percentage of inhibition” for short) [1, 11]?
A: 44%

Q: `COCCOCc1nc(C(F)(F)F)ccc1C(=O)C1=C(O)C2CCC(C2)C1=O` (centres unmarked) [Bicyclopyrone, 4-hydroxy-3-[[2-[(2-methoxyethoxy)methyl]-6-(trifluoromethyl)-3-pyridinyl]carbonyl]bicyclo[3.2.1]oct-3-en-2-one] was tested. Which “tolerance of plants containing the HPPD FMP29” value [3] did it give?
A: displayed tolerance

Q: And the “% of tolerant plant” value ([3]; FMP29e line 121)?
A: 2%

Q: And the “Class I (number of plants, injury: 0-30%)” value [3, 12]?
A: 38

Q: What about the “Class II (number of plants, injury: 31-100%)” value [3, 12] of the same compound?
A: 11

Q: And the “% of tolerant plant” value [4]?
A: 0%

Q: What about the “Class I (number of plants, injury: 0-30%)” value [4] of the same compound?
A: 0

Q: What about the “Class II (number of plants, injury: 31-100%)” value [4] of the same compound?
A: 12

Q: And the IC50 [2]?
A: 398 µM

Q: What about the “percentage of inhibition” value [1, 11] of the same compound?
A: 24%

Q: Which results are given for `CS(=O)(=O)c1ccc(C(=O)C2C(=O)CCCC2=O)c(Cl)c1COCC1CCCO1` (centres unmarked) [Tefuryltrione, 2-[2-chloro-4-(methylsulfonyl)-3-[[(tetrahydro-2-furanyl)methoxy]methyl]benzoyl]-1,3-cyclohexanedione]?
A: IC50 [2]: 3.16 µM; percentage of inhibition compared to the activity measured in absence of the inhibitor [1, 11]: 87. %

Q: Which results are given for `CS(=O)(=O)c1ccc(C(=O)C2C(=O)CCCC2=O)c(Cl)c1COCC(F)(F)F` [Tembotrione, 2-[2-chloro-4-(methylsulfonyl)-3-[(2,2,2,-tri-fluoroethoxy)methyl]benzoyl]-1,3-cyclo-hexanedione]?
A: % injury, 7DAT, 100 g Al/ha [5]: 100%; tolerance of plants containing FMP29e gene [6]: far more tolerant; % injury, 7DAT, 100 g Al/ha ([6]; line 115, individual T1 plants): 30% and 40% and 50% (3×); % injury, 7DAT, 100 g Al/ha ([6]; line 292, individual T1 plants): 20% (2×) and 30% and 40% (2×); % injury, 7DAT, 100 g Al/ha ([7]; line 252, individual T1 plants): 30% and 40% (3×) and 50% and 60% (2×) and 70% (2×) and 75% (3×) and 80%; % injury, 7DAT, 100 g Al/ha ([7]; line 258, individual T1 plants): 100% (5×) and 30%; % injury, 7DAT, 100 g Al/ha ([7]; line 327, individual T1 plants): 10% and 20% (2×) and 40% and 50% and 0% and 70% (5×) and 80% (4×); pI50 [1, 13]: 5.5; percentage of inhibition compared to the activity measured in absence of the inhibitor [1, 11]: 58%; root growth on media supplemented with tembotrione [8]: On none of the events; root growth on media supplemented with tembotrione [9]: developed numerous and healthy roots; % Elongation & rooting on 10^−6M tembotrione ([9]; 10^−6M): 65%

Q: With `CS(=O)(=O)c1ccc(C(=O)C2C(=O)CCCC2=O)c([N+](=O)[O-])c1` [Mesotrione, 2-[4-(methylsulfonyl)-2-nitrobenzoyl]-1,3-cyclohexanedione] as the compound, how does the “percentage of inhibition” value [1] read?
A: 84%

Q: `CS(=O)(=O)c1cc(C(F)(F)F)ccc1C(=O)C(C#N)C(=O)C1CC1` (centres unmarked) [Diketonitrile, 2-cyano-3-cyclopropyl-1-(2-methylsulphonyl-4-trifluoromethylphenyl)-propane-1,3-dione] was tested. Which IC50 [2] did it give?
A: 12.6 µM

Q: And the “percentage of inhibition” value [1, 11]?
A: 26%

Q: With `Cc1nn(C)c(O)c1C(=O)c1ccc(C(F)(F)F)cc1S(C)(=O)=O` [Pyrasulfotole] as the compound, how does the pI50 ([10]; 2 mM HPP, 3 minutes incubation, >> = far higher than indicated, not calculable in tested range 2.5 × 10^−6 to 2.5 × 10^−4M) read?
A: 5.4

Q: What about the “percentage of inhibition” value ([10]; 5.0 × 10^−6M inhibitor) of the same compound?
A: 69%

Q: What about the pI50 [1, 13] of the same compound?
A: 4.0

Q: And the “percentage of inhibition” value [1, 11]?
A: 7%

Q: For `CS(=O)(=O)c1cc(C(F)(F)F)ccc1C(=O)c1cnoc1C1CC1` [Isoxaflutole, (5-cyclopropyl-4-isoxazolyl)[2-(methylsulfonyl)-4-(trifluoromethyl)phenyl]methanone], which “% injury, 7DAT, 100 g Al/ha” value [5] is on record?
A: 98% and 99% (2×) and 100% (4×)

Q: What about the “tolerance of plants containing FMP29e gene” value [6] of the same compound?
A: far more tolerant

Q: And the “% injury, 7DAT, 100 g Al/ha” value ([6]; line 115, individual T1 plants)?
A: 0% and 2% and 5% and 10% and 15% and 30% (2×) and 40%

Q: And the “% injury, 7DAT, 100 g Al/ha” value ([6]; line 292, individual T1 plants)?
A: 20% and 30% and 40%

Q: And the “% injury, 7DAT, 100 g Al/ha” value ([7]; line 252, individual T1 plants)?
A: 30% and 70% and 95% and 98% (2×) and 99% (4×) and 100% (4×)

Q: And the “% injury, 7DAT, 100 g Al/ha” value ([7]; line 258, individual T1 plants)?
A: 100%

Q: What about the “% injury, 7DAT, 100 g Al/ha” value ([7]; line 327, individual T1 plants) of the same compound?
A: 10% and 20% and 60% (2×) and 70% and 80% and 95% and 98% and 99% and 100% (6×)
